Data: US10357487B2, “Combinations of acetylcholinesterase inhibitors and muscarinic agonists and methods of use thereof” (priority 2015, dated 2019)

Tests used:
[1] = system: patients with history of PVR; test: Side effects observed in the patients
[2] = system: patients with history of PVR; test: Voiding trial / ability to void under stepwise drug regimens; type: in vivo, human
Procedure: In an exemplary embodiment, patients with history of PVR of 100 ml to 2500 ml failed bother standard drug treatment and the Trans Urethral Resection of the Prostate (TURP) procedure or combinations of both treatment options.
(§1) The patients opted for immediate TURP and pharmacological therapy with alpha blocker, bethanechol, and donepezil if needed.
(§2) Bethanechol was then added to maximal recommended doses, according to package insert or Physician Desk Reference (PDR), which was 200 mg per day in divided doses. […] Bethanocol was either added at 75 mg five times per day to their existing regimen or patients were switched to betahnocol alone at 75 mg five time per day.
(§3) Subsequently donepezil was added in amounts ranging from 5 or 10 to their respective regimens.
While all patients in this series were males, females can also benefit from the present combination, particularly if no obstruction exists in their urinary tract.

[3] = system: patients with history of PVR; test: Post void residual (PVR) before and after combination regimen in patients with urinary retention; type: in vivo, human; settings: donepezil 5 or 10 added to respective regimens (alpha blocker, bethanechol); all patients
Procedure: as §1, §2, §3

[4] = silodosin 8 mg added to tamsulosin

CC(C[N+](C)(C)C)OC(N)=O (centres unmarked) [bethanechol, carbamyl-methylcholine chloride]
side effects ([1]; bethanechol at 200 mg per day or 375 mg per day, eight patients): no side effects

COc1cc2c(cc1OC)C(=O)C(CC1CCN(Cc3ccccc3)CC1)C2 (centres unmarked) [donepezil]
ability to void ([2]; donepezil 5 or 10 added to respective regimens, each patient): able to void
bladder emptying ([2]; eight sequentially seen patients, donepezil with bethanechol): potentiated bethanechol to facilitate bladder emptying
frequency of voiding ([2]; upon continuation of the regimen with donepezil, all patients): increasing frequency of voiding
reduction in PVR upon completion of the trial [3]: more than 75%

C[C@H](Cc1cc2c(c(C(N)=O)c1)N(CCCO)CC2)NCCOc1ccccc1OCC(F)(F)F [silodosin]
voiding trial [2, 4]: failed to the voiding trial
side effects [1, 4]: no extra side effects

CCOc1ccccc1OCCN[C@H](C)Cc1ccc(OC)c(S(N)(=O)=O)c1 [tamsulosin]
voiding trial ([2]; tamsulosin 0.4 mg or 0.8 mg per day): failed a voiding trial
